Source: ChEMBL document CHEMBL4765432, “Design and synthesis of novel Flavone-based histone deacetylase inhibitors antagonizing activation of STAT3 in breast cancer” (Eur J Med Chem, 2020)
Active and inactive are the calls of the source. The rule behind the calls is not given here.

Legend:
[1] = test system: MDA-MB-231; test: Induction of apoptosis in human MDA-MB-231 cells assessed as late apoptotic cells at 2.5 uM incubated for 72 hrs by annexinV-FITC and PI staining based flow cytometry analysis (reference value: 3.79 %); type: functional
[2] = Cmax in Sprague-Dawley rat at 20 mg/kg, po measured upto 12 hrs by LC-MS/MS analysis; type: ADME, organism-based; set-up: route oral, dose 20 mg/kg, time <=12; details: in vivo
[3] = test system: 4T1; test: Antitumor activity against mouse 4T1 cells xenografted in BALB/c mouse assessed as tumor growth inhibition at 50 mg/kg, po administered for 22 days and measured on day 22; type: functional, organism-based; details: time 22.0 day
[4] = test system: BT-549; test: Potency index, ratio of IC50 of SAHA to IC50 of compound for cytotoxicity against human BT-549 cells assessed as reduction in cell viability incubated for 48 hrs by MTT assay; type: functional
[5] = test system: PLC; test: Cytotoxicity against human PLC cells assessed as reduction in cell viability incubated for 48 hrs by MTT assay; type: functional, cell-based
[6] = test system: MDA-MB-468; test: Potency index, ratio of IC50 of SAHA to IC50 of compound for cytotoxicity against human MDA-MB-468 cells assessed as reduction in cell viability incubated for 48 hrs by MTT assay; type: functional
[7] = test system: MDA-MB-231; test: Induction of cell cycle arrest in human MDA-MB-231 cells assessed as G0/G1 phase accumulation at 1 uM incubated for 24 hrs by PI staining based flow cytometry analysis (reference value: 29.10 %); type: functional
[8] = biological target: Histone deacetylase 3 (Homo sapiens, UniProt O15379); test: (§1) Inhibition of recombinant human C-terminal GST-tagged full length HDAC-3 expressed in baculovirus infected in Sf9 cells using Boc-Lys (q-Ac)-AMC as substrate incubated for 10 mins followed by substrate addition and measured after 30 mins by fluorescence based assay
Histone deacetylase 3, sequence (O15379 whole entry): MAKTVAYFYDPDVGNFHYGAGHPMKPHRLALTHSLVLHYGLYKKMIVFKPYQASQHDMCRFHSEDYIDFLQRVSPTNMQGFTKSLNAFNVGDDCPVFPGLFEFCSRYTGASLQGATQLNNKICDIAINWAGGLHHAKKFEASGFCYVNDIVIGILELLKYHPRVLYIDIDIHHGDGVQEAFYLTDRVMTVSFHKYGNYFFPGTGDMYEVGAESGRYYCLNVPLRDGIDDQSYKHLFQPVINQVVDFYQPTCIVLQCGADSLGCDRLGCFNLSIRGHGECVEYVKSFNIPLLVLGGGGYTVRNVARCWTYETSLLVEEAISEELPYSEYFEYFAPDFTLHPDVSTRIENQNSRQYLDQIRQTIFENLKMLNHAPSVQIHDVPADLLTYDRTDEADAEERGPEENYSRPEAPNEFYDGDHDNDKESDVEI

[9] = test system: SUM-159-PT; test: Cytotoxicity against human SUM159PT cells assessed as reduction in cell viability incubated for 48 hrs by MTT assay; type: functional, cell-based
[10] = test system: 4T1; test: Induction of apoptosis in mouse 4T1 cells implanted in BALB/c mouse assessed as increase in caspase-3 cleavage by immunohistochemistry method; type: functional, cell-based
[11] = biological target: Histone deacetylase 9 (Homo sapiens, UniProt Q9UKV0); test: as §1, with “N-terminal” for “C-terminal”, “HDAC-9 (548 to end residues)” for “full length HDAC-3”, “cells at 10 uM” for “cells”, “assay relative to control” for “assay”; details: time 40.0 min
Histone deacetylase 9, sequence (Q9UKV0 whole entry): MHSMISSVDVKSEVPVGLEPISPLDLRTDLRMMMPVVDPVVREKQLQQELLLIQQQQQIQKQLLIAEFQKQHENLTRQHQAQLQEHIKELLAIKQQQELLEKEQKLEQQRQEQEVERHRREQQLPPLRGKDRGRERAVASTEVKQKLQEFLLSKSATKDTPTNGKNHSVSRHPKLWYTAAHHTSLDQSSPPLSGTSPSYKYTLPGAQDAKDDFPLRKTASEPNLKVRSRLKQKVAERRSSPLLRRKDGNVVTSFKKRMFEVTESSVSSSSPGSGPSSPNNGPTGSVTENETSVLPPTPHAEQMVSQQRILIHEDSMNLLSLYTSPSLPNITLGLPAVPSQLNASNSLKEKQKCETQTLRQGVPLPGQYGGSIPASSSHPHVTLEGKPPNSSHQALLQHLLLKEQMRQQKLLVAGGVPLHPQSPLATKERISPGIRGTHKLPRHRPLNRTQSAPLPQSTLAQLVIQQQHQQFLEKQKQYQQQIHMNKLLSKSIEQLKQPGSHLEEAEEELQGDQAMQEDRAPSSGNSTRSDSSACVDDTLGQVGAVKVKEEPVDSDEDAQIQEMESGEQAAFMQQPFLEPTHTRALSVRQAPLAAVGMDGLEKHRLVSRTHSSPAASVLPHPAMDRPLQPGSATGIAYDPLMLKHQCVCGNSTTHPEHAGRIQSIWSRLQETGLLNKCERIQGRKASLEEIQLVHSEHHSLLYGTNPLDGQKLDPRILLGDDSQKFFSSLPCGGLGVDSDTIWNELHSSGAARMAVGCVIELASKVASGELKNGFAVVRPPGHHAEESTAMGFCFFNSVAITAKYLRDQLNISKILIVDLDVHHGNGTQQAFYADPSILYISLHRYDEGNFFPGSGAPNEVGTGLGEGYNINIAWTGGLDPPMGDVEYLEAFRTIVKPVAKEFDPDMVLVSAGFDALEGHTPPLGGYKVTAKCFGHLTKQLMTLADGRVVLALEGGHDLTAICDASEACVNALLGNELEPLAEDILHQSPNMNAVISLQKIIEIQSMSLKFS

[12] = test system: 4T1; test: Induction of apoptosis in mouse 4T1 cells assessed as late apoptotic cells at 1 uM incubated for 72 hrs by annexinV-FITC and PI staining based flow cytometry analysis (reference value: 2.24 %); type: functional
[13] = test system: 4T1; test: Induction of apoptosis in mouse 4T1 cells assessed as viable cells at 5 uM incubated for 72 hrs by annexinV-FITC and PI staining based flow cytometry analysis (reference value: 91.1 %); type: functional; details: read-out: Activity
[14] = biological target: Histone deacetylase 5 (Homo sapiens, UniProt Q9UQL6); test: Inhibition of recombinant human N-terminal GST-tagged HDAC-5 (617 to end residues) expressed in baculovirus infected in Sf9 cells using Boc-Lys (q-Ac)-AMC as substrate incubated for 10 mins followed by substrate addition and measured after 30 mins by fluorescence based assay
Histone deacetylase 5, sequence (Q9UQL6 whole entry): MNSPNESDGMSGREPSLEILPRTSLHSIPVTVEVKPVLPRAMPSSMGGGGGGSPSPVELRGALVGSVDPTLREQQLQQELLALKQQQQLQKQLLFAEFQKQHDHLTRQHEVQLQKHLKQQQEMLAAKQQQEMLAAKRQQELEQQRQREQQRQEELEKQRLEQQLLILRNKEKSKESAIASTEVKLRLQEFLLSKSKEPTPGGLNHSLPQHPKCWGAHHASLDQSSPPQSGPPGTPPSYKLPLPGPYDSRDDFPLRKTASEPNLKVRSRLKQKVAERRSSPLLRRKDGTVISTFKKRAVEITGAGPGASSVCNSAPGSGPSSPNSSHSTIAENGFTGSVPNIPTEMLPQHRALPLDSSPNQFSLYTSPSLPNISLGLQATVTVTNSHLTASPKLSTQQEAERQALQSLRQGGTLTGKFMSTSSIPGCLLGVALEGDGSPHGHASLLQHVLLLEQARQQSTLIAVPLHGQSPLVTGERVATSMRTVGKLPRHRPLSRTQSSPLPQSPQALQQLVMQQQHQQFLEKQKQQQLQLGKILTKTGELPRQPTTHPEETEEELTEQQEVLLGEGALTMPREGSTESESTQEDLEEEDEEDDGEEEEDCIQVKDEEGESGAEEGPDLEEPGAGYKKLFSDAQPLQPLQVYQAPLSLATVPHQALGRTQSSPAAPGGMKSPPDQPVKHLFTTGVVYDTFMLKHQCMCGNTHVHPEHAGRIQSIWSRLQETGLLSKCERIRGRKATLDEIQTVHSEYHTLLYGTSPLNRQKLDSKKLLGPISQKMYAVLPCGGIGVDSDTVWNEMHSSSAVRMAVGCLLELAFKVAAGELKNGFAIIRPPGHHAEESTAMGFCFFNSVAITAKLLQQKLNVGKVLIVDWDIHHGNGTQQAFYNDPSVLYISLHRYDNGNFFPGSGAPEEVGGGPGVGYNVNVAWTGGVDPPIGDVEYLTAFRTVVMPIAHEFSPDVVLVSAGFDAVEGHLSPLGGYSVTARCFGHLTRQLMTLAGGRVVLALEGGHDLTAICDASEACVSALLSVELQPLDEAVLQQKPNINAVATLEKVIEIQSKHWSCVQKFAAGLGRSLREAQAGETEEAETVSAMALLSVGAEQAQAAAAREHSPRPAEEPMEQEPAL

[15] = test system: 4T1; test: Cytotoxicity against mouse 4T1 cells assessed as reduction in cell viability incubated for 48 hrs by MTT assay; type: functional, cell-based; details: 4T1, 48 h
[16] = test system: MDA-MB-231; test: Induction of cell cycle arrest in human MDA-MB-231 cells assessed as S phase accumulation at 2 uM incubated for 24 hrs by PI staining based flow cytometry analysis (reference value: 43.82 %); type: functional
[17] = test system: 4T1; test: Induction of apoptosis in mouse 4T1 cells assessed as necrotic cells at 5 uM incubated for 72 hrs by annexinV-FITC and PI staining based flow cytometry analysis (reference value: 5.00 %); type: functional
[18] = Toxicity in BALB/c mouse xenografted with human MDA-MB-231 cells assessed as effect on body weight at 25 mg/kg, ip administered for 34 days and measured on day 34; type: organism-based; details: in vivo, 816 h, time 34 day
[19] = biological target: Histone deacetylase 8 (Homo sapiens, UniProt Q9BY41); test: Inhibition of recombinant human N-terminal GST-tagged full length HDAC-8 expressed in baculovirus infected in Sf9 cells using Boc-Lys (q-Ac)-AMC as substrate incubated for 10 mins followed by substrate addition and measured after 30 mins by fluorescence based assay
Histone deacetylase 8, sequence (Q9BY41 whole entry): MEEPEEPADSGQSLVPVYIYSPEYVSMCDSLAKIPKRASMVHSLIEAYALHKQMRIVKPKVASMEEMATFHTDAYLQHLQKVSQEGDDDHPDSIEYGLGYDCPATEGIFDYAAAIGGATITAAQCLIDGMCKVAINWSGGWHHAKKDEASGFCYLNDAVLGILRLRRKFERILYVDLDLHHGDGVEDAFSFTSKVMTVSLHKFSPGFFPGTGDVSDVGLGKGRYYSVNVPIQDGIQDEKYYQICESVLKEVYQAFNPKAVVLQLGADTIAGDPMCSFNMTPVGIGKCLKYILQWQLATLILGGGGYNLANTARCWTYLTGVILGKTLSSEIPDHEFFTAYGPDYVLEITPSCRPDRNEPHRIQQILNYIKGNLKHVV

[20] = Genotoxicity in Salmonella typhimurium WP2 uvrA (pKM 101) by Ames test; type: toxicity; details: salmonella enterica subsp. enterica serovar typhimurium
[21] = Genotoxicity in Salmonella typhimurium TA1537 by Ames test; type: toxicity; details: salmonella enterica subsp. enterica serovar typhimurium
[22] = AUC (0 to infinity) in Sprague-Dawley rat at 20 mg/kg, po measured upto 12 hrs by LC-MS/MS analysis; type: ADME, organism-based; set-up: route oral, dose 20 mg/kg, time <=12; details: in vivo
[23] = test system: 4T1; test: Induction of cell cycle arrest in mouse 4T1 cells assessed as increase in p21 expression at 0.25 to 5 uM incubated for 24 hrs by Western blot analysis; type: functional, cell-based; details: dose 0.25-5 µM
[24] = test system: MDA-MB-231; test: Induction of apoptosis in human MDA-MB-231 cells assessed as viable cells at 1 uM incubated for 72 hrs by annexinV-FITC and PI staining based flow cytometry analysis (reference value: 90.3 %); type: functional; details: read-out: Activity
[25] = Genotoxicity in Salmonella typhimurium TA98 by Ames test; type: toxicity; details: salmonella enterica subsp. enterica serovar typhimurium
[26] = test system: 4T1; test: Induction of cell cycle arrest in mouse 4T1 cells assessed as G0/G1 phase accumulation at 1 uM incubated for 24 hrs by PI staining based flow cytometry analysis (reference value: 42.06 %); type: functional
[27] = test system: A549; test: Cytotoxicity against human A549 cells assessed as reduction in cell viability incubated for 48 hrs by MTT assay; type: functional, cell-based; details: A549, 48 h
[28] = MRT in Sprague-Dawley rat at 20 mg/kg, iv measured upto 12 hrs by LC-MS/MS analysis; type: ADME, organism-based; details: in vivo
[29] = test system: 4T1; test: Induction of apoptosis in mouse 4T1 cells assessed as late apoptotic cells at 2.5 uM incubated for 72 hrs by annexinV-FITC and PI staining based flow cytometry analysis (reference value: 2.24 %); type: functional
[30] = test system: Bel-7402; test: Cytotoxicity against human Bel-7402 cells assessed as reduction in cell viability incubated for 48 hrs by MTT assay; type: functional, cell-based; details: Bel-7402, 48 h
[31] = Genotoxicity in Salmonella typhimurium TA97a by Ames test; type: toxicity; details: salmonella enterica subsp. enterica serovar typhimurium
[32] = Cmax in Sprague-Dawley rat at 20 mg/kg, iv measured upto 12 hrs by LC-MS/MS analysis; type: ADME, organism-based; set-up: route intravenous, dose 20 mg/kg, time <=12; details: in vivo
[33] = test system: MDA-MB-231; test: Induction of apoptosis in human MDA-MB-231 cells assessed as decrease in Bcl-2 expression incubated for 48 hrs by Western blot analysis; type: functional, cell-based; details: dose 0.5-10 µM
[34] = test system: MCF7; test: Cytotoxicity against human MCF7 cells assessed as reduction in cell viability incubated for 48 hrs by MTT assay; type: functional, cell-based; details: MCF7, 48 h
[35] = test system: MDA-MB-231; test: Induction of cell cycle arrest in human MDA-MB-231 cells assessed as G2/M phase accumulation at 1 uM incubated for 24 hrs by PI staining based flow cytometry analysis (reference value: 27.08 %); type: functional
[36] = test system: 4T1; test: Induction of cell cycle arrest in mouse 4T1 cells assessed as G2/M phase accumulation at 2 uM incubated for 24 hrs by PI staining based flow cytometry analysis (reference value: 38.51 %); type: functional

CN(C)CCOc1ccc(-c2cc(=O)c3c(O)cc(OCCCCCC(=O)NO)cc3o2)cc1.Cl
Activity [1]: 24.3%
Cmax [2]: 1280 ng/mL
TGI [3]: Active
Ratio IC50 [4]: 2
IC50 [5]: 0.582 µM
Ratio IC50 [6]: 2
Activity [7]: 49.09%
IC50 [8]: 0.0792 µM
IC50 [9]: 0.277 µM
Activity [10]: Active
inhibition [11]: 26%
Activity [12]: 8.59%
viability at 5 µM [13]: 22.5%
IC50 [14]: > 10 µM
IC50 [15]: 1.99 µM
Activity [16]: 10.21%
Activity [17]: 0.852%
Activity [18]: Non-Toxic
IC50 [19]: 2.5 µM
Activity [20]: Non-Toxic
Activity [21]: Non-Toxic
AUC(0-inf) [22]: 1640 ng·h/mL
Activity [23]: Active
viability at 1 µM [24]: 64.8%
Activity [25]: Toxic
Activity [26]: 49.62%
IC50 [27]: 1.08 µM
MRT [28]: 1.25 h
Activity [29]: 33.9%
IC50 [30]: 3.31 µM
Activity [31]: Non-Toxic
Cmax [32]: 2180 ng/mL
Activity [33]: Dose-dependent effect
IC50 [34]: 4.7 µM
Activity [35]: 42.82%
Activity [36]: 11.51%
